Target: T1, E. histolytica LMW-PTP (Entamoeba histolytica, UniProt C4LSE7)
T1 sequence (C4LSE7 1-157): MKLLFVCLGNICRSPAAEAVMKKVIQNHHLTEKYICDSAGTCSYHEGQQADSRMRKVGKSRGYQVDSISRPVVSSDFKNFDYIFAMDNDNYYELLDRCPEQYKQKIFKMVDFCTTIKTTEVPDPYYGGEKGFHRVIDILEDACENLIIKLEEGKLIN
Assay: colorimetric phosphatase assay, A405
Type: biochemical
Conditions: kit assay buffer, 10-200 ng enzyme, 100 ul

In the case of O=[N+]([O-])c1ccc(OP(=O)(O)O)cc1 [pNPP], the “colorimetric phosphatase assay, A405 (SensoLyte pNPP kit)” value is reported as “The wild-type recombinant LMW-PTP possessed phosphatase activity”.

Reference: article PMC4022148 (Molecular and biochemical parasitology, 2014)
